From patent US20250074920A1, “MACROCYCLIC COMPOUNDS AND USE AS KINASE INHIBITORS” (BLOSSOMHILL THERAPEUTICS, INC., priority 2022, published 2025)

Assays:
Assay in all cases: KINOMEscan kinase binding assay
[1] = system: ABL1(Q252H)-phosphorylated; settings: at 1 μM
In short: (§1)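 We measured how much kinase stayed bound to an immobilized small-molecule ligand when test compound was present. Binding ran at room temperature for 1 h, and the kinase eluted from the beads was counted by qPCR. Lower % Ctrl indicated tighter compound binding.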

CSF1R-autoinhibited = settings: at 1 μM
In short: as §1

EPHB6 = settings: at 1 μM
In short: as §1

TIE1 = settings: at 1 μM
In short: as §1

EGFR(L858R, T790M) = settings: at 1 μM
In short: (§2)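 qPCR read-out of kinase retained on ligand-coated streptavidin beads. Binding buffer: 20% SeaBlock, 0.17×PBS, 0.05% Tween 20, 6 mM DTT; 1 h RT with shaking. % Ctrl = (test − positive control)/(negative control − positive control)×100; lower values mean stronger binding.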

EGFR(S752-1759del) = settings: at 1 μM
In short: as §2

TNK1 = settings: at 1 μM
In short: as §1

[2] = system: TYK2(JH2domain-pseudokinase); settings: for % Ctrl: TYK2(JH2domain-pseudokinase), at 1 μM; for Kd: read-out: TYK2(JH2 domain-pseudokinase) Kd
In short: as §2

EGFR = settings: at 1 μM
In short: as §1

Row | SMILES | % Ctrl [1] [%] | % Ctrl (CSF1R-autoinhibited) [%] | % Ctrl (EPHB6) [%] | % Ctrl (TIE1) [%] | % Ctrl (EGFR(L858R, T790M)) [%] | % Ctrl (EGFR(S752-1759del)) [%] | % Ctrl (TNK1) [%] | % Ctrl [2] [%] | Kd [2] [nM] | % Ctrl (EGFR) [%]
1 | Cc1cc2c([nH]1)/C=C1\C(=O)Nc3ccc(cc31)-c1c(nn(C)c1C)OCCCN(C)C2=O [Cpd. 1, [3a(4)Z]-6,9,15,16-tetramethyl-9,10,11,12-tetrahydro-15H-1,17-(ethanediylidene)pyrazolo[4,3-n]dipyrrolo[3,2-g:3′,4′-j][1,5]oxazacyclopentadecine-3,8(2H,5H)-dione] | 99 | 82 | 100 | 100 | 89 | 88 | 100 | 1.5 | 220 | 100
2 | Cc1cc2c([nH]1)/C=C1\C(=O)Nc3ccc(cc31)-c1c(nn(C)c1C)COCCN(C)C2=O [Cpd. 2, [3a(4)Z]-6,9,15,16-tetramethyl-10,11,13,15-tetrahydro-2H-1,17-(ethanediylidene)pyrazolo[4,3-m]dipyrrolo[3,2-f:3′,4′-i][1,4]oxazacyclopentadecine-3,8(5H,9H)-dione] | 62 | 100 | 93 | 61 | 62 | 80 | 92 | 0.6 | 1.2 | 66
3 | Cc1cc2c([nH]1)/C=C1\C(=O)Nc3c(Cl)cc(cc31)-c1cn(C)nc1COC[C@@H](C)NC2=O [Cpd. 3, [3a(4)Z,10R]-20-chloro-6,10,15-trimethyl-10,11,13,15-tetrahydro-2H-1,17-(ethanediylidene)pyrazolo[4,3-m]dipyrrolo[3,2-f:3′,4′-i][1,4]oxazacyclopentadecine-3,8(5H,9H)-dione] | 100 | 71 | 86 | 93 | 72 | 94 | 94 | 0 | 3 | 79
4 | C[C@@H]1COCc2nn(C)cc2-c2cc(Cl)c3c(c2)/C(=C/c2[nH]ccc2C(=O)N1)C(=O)N3 [Cpd. 4, [3a(4)Z,10R]-20-chloro-10,15-dimethyl-10,11,13,15-tetrahydro-2H-1,17-(ethanediylidene)pyrazolo[4,3-m]dipyrrolo[3,2-f:3′,4′-i][1,4]oxazacyclopentadecine-3,8(5H,9H)-dione] | 89 | 75 | 86 | 84 | 77 | 93 | 94 | 0.2 | 1.9 | 82
5 | Cc1cc2c([nH]1)/C=C1\C(=O)Nc3c(Cl)cc(cc31)-c1cn(C)nc1COC[C@@H](C)N(C)C2=O [Cpd. 5, [3a(4)Z,10R]-20-chloro-6,9,10,15-tetramethyl-10,11,13,15-tetrahydro-2H-1,17-(ethanediylidene)pyrazolo[4,3-m]dipyrrolo[3,2-f:3′,4′-i][1,4]oxazacyclopentadecine-3,8(5H,9H)-dione] | 89 | 75 | 92 | 91 | 64 | 100 | 91 | 0 | 0.18 | 96
